One substance from patent US8951972B2, “FGFR1 extracellular domain combination therapies for lung cancer” (Five Prime Therapeutics, Inc., priority 2010, dated 2015) can be followed below.

The test system of assay [1] is JIMT-1 Breast Cancer Xenograft. Description: JIMT-1 breast cancer xenograft model, tumor volume. Particulars: Day 21; FGFR1-ECD.339-Fc 15 mg/kg i.p. 2x/wk; doxorubicin 0.5 mg/kg 1x/wk; paclitaxel 30 mg/kg 2x/wk; each x 5 wks from day 7.
Method: Six week old female SCID mice were purchased from Charles River Laboratories (Wilmington, Mass.) and were acclimated for 1 week before the start of the study. […] The cells were cultured for ten passages in DMEM+10% FBS, 1% L-glutamine, and 1% penicillin/streptomycin at 37° C. in a humidified atmosphere with 5% CO2. When the cultured cells reached 85-90% confluence, cells were harvested and resuspended in cold Ca^2+ and Mg^2+ free phosphate buffered saline (PBS) containing 50% Matrigel at 5×10^7 cells per milliliter. The cells were implanted subcutaneously over the right flank of the mice at 5×10^6 cells/100 μl/mouse. One day after tumor implantation, mice were randomized according to body weight at 10 mice per group.
FGFR1-ECD.339-Fc was formulated in 0.9% Saline for Injection USP at 3 mg/ml and administered intraperitoneally (i.p.) at 15 mg/kg (300 μg/100 μl/mouse) twice per week for five weeks beginning on day 7. […] Paclitaxel was administered at 30 mg/kg (60 μg/200 μL per mouse) twice per week for five weeks beginning on day 7.
The tumor volume and body weight of the mice were monitored twice a week throughout the study.
Mice were euthanized on day 42 by isoflurane inhalation and cervical dislocation.
Assay [2] deals with Colo205 Colon Cancer Xenograft. Description: Colo205 colon cancer xenograft model, tumor volume. The class given is in vivo, SCID mice. On the procedure:
Cells were resuspended in a solution of 50%/v PBS and 50%/v Matrigel at a concentration of 25 million cells/ml. Resuspended cells were kept on ice until implantation. […] On day 0, 2.5 million cells/100 μl were implanted over the right flank of the each mouse using a 27G1/2 needle. One day after tumor implantation, the mice were randomized according to the body weight.
Leucovorin (LV) was also purchased from Sigma-Aldrich (Cat. No. F8259) and was formulated in 0.9% Sodium Chloride Injection USP at 2 mg/ml (for 10 mg/kg dosing), to 4 mg/ml (for 20 mg/kg dosing), and to 6 mg/ml (for 30 mg/kg dosing).
In the first experiment, FGFR1-ECD.339-Fc was combined with three different concentrations of 5-FU/leucovorin. In the second experiment, FGFR1-ECD.339-Fc was combined with either bevacizumab or 5-FU/leucovorin, or both. The double line separates the groups from the two experiments.
When the average tumor volume in a group was near 600 mm^3, the mice in that group were euthanized by isoflurane inhalation and cervical dislocation.
The order of effectiveness of the various treatments was evaluated two ways: 1) the average tumor volume in each group on a single time point (day); and 2) time for the average tumor volume in each group to reach 500 mm^3 (see the dotted line in FIG. 11E).
Leucovorin was also purchased from Sigma-Aldrich (Cat. No. F8259) and was formulated in 0.9% Sodium Chloride Injection USP at 2 mg/ml (for 10 mg/kg dosing).
5-FU and leucovorin were each administered i.p. at 10 mg/kg daily for five days. Oxaliplatin was administered i.p. at 5 mg/kg, 10 mg/kg, or 15 mg/kg in one dose on day 1.
Mice were euthanized on day 28 by isoflurane inhalation and cervical dislocation.

[3] abbreviates: day 24, FGFR1-ECD.339-Fc 15 mg/kg i.p. 3x/wk x 4 wks, bevacizumab 1 mg/kg i.p. 2x/wk x 4 wks, 5-Fu/LV 10 mg/kg each i.p. q.d. x 5 days.

For the substance “FGFR1-ECD.339-Fc: human FGFR1 extracellular domain ending at amino acid 339 fused to an Fc; SEQ ID NO: 6 (mature form)”, the “Fractional tumor volume (FTV), each treatment alone” value in assay [1] amounted to 0.93; in assay [2] (Day 16, FGFR1-ECD.339-Fc 15 mg/kg i.p. 3x/wk x 4 wks, 5-FU/LV 10 mg/kg each i.p. q.d. x 5 days) it was 0.76; in assay [2] (Day 16, FGFR1-ECD.339-Fc 15 mg/kg i.p. 3x/wk x 4 wks, 5-FU/LV 20 mg/kg each i.p. q.d. x 5 days), 0.76; in assay [2] (Day 16, FGFR1-ECD.339-Fc 15 mg/kg i.p. 3x/wk x 4 wks, 5-FU/LV 30 mg/kg each i.p. q.d. x 5 days) it was 0.76; in assay [2] (Day 24, FGFR1-ECD.339-Fc 15 mg/kg i.p. 3x/wk x 4 wks, bevacizumab 1 mg/kg i.p. 2x/wk x 4 wks, 5-Fu/LV 10 mg/kg each q.d. x 5 days) it was 0.73; in assay [2] (day 17, FGFR1-ECD.339-Fc 15 mg/kg i.p. 2x/wk x 4 wks, 5-FU and leucovorin 10 mg/kg each i.p. daily x 5 days, oxaliplatin 5 mg/kg i.p. one dose day 1) it was 0.77. Moreover, the “Fractional tumor volume (FTV), each treatment alone” value in assay [2] (day 17, FGFR1-ECD.339-Fc 15 mg/kg i.p. 2x/wk x 4 wks, 5-FU and leucovorin 10 mg/kg each i.p. daily x 5 days, oxaliplatin 10 mg/kg i.p. one dose day 1) is given as 0.77. Further, the “Order of antitumor effect of the treatment groups” value in assay [2] (by average tumor volume on a single day and by time for average tumor volume to reach 500 mm^3 (FIG. 11E), value gives the next-ranked group) was “>vehicle”. The “Mean Tumor volume mm^3(±SD)” value in assay [2] (setting [3]) is 509 (±144) mm^3. Besides, the “Tumor growth inhibition (%)” value in assay [2] (setting [3]) came out at 26%.
